# How the values were obtained:
# 3D U-87 [1] = assay: PrestoBlue viability on 3D dynamic in vitro BBB model, 3D U-87; format: cell-based, human; settings: 3D U-87 in lower chamber, injection into upper chamber, TMZ 10 μM, 72 h
# Method: (§1) To evaluate the effects of NF-TMZ on fluid-dynamically cultured 3D GBM cells, we set up different bioreactors containing HBMEC and hPC-PL cells in the upper chamber and 3D U-118 cells or 3D U-87 cells in the lower chamber. NF-TMZ (10 μM), NF-t, and free TMZ (10 μM) were injected into the upper chamber, and their effects were evaluated after 72 h using the PrestoBlue viability assay. Briefly, 72 h after treatment, spheroids in the lower chamber were taken out and placed inside 48-well plates, and the PrestoBlue viability reagent (1:10) was added for 1.5 h. The absorbance was quantified using a Bio-Tek Synergy HT Microplate Reader. The control bioreactor was performed with HBMEC and hPC–PL cells in the upper chamber; and 3D U-118 MG cells and 3D U-87 MG cells in the lower chamber without treatment.
# 3D U-87 [2] = assay: PrestoBlue cell viability, 3D U-87 spheroids; format: cell-based, human; settings: 3D U-87, 10 μM TMZ, 72 h, treated every 24 h
# Method: Once the appropriate concentration corresponding to the greatest lowering of cell viability was established, we proceeded with the 3D U-118 and 3D U-87 cell assays. To produce 3D U-118 and 3D U-87 cells, we used the hanging drop method. Briefly, 10,000 cells per drop were placed in the lid of a 100 mm dish, creating a hydration chamber by placing PBS in the dish bottom. After incubating for 48 h at 37 °C/5% CO2, the aggregates were transferred to a 48-well plate (5 spheroids per well: approximately 50,000 cells/well). The 3D cells were treated every 24 h for 3 days. Each treatment was conducted on 10 spheroids: approximately 100,000 cells for each experimental class: 1) control; 2) NF-t; 3) NF-TMZ (10 μM); 4) free TMZ (10 μM). At the end of the incubation time, a cell viability assay was performed with using the PrestoBlue assay: the cells were incubated for 90 min, according to the manufacturer’s protocol. At the end of the incubation time, we measured the absorbance at 570 nm (with 600 nm as the reference wavelength) using a Bio-Tek Synergy HT Microplate reader.
# U118 MG spheroids = assay: Spheroid shape descriptors (Fiji), U118 MG; format: cell-based, human
# Method: (§2) To identify apoptotic and necrotic cells, Annexin V-FITC/Propidium Iodide (PI) assay was performed according to the manufacturer’s protocol. Annexin V highlights apoptotic cells by binding to phosphatidylserine (PS) on their membranes . Propidium Iodide (PI) binds to the DNA of necrotic cells, as it is not permeable to the cell membrane. Cells lose the membrane integrity, Annexin V-FITC/PI can enter the cells. After the 3D cell treatment, cells were stained with Annexin V-FITC/PI for 20 min in the dark. After washing with PBS, nuclei were labeled with 4′,6-diamidino-2-phenylindole (DAPI) for 5 min. Images of the 3D cells were acquired using the JuLi Stage_RealTime Cell History Recorder microscope with a 10x objective, using different channels: RFP, GFP, and DAPI. The images were corrected for brightness and contrast using Fiji software and analyzed to evaluate morphological parameters after treatments. For each experimental condition, three different assays were repeated.
# (§3) To evaluate shape descriptors, 10 spheroids for each formulation were imaged and analyzed by Fiji software (Table 4).
# (§4) Table 4 was obtained using Fiji software, for U-118 and U-87 spheroids treated with NF-TMZ, free TMZ, and NF-t, compared with controls (no treatment), ***p < 0.001. Circularity was calculated as [drawing 3] . Values of 1.0 indicate a perfect circle; while as the value approaches 0.0, it indicates an increasingly elongated shape. Feret’s diameter was the maximum caliper of the object, also known as the longest distance between any two points along the selection boundary. The minimum caliper diameter is indicated as Min Feret. The aspect ratio of the particle’s fitted ellipse was calculated as [drawing 4] and is indicated as AR. Roundness was calculated as 4 [drawing 5] and is the inverse of AR. Shape descriptors describe the eventual changes in spheroid morphology following treatment.
# 3D U-118 [3] = assay: PrestoBlue viability on 3D dynamic in vitro BBB model, 3D U-118; format: cell-based, human; settings: 3D U-118 in lower chamber, injection into upper chamber, TMZ 10 μM, 72 h
# Method: as §1
# U87 MG spheroids = assay: Spheroid shape descriptors (Fiji), U87 MG; format: cell-based, human
# Method: as §2, §3, §4
# U-118 MG [4] = settings: U-118, 72 h, same experimental conditions; cited from earlier work
# Method: In 2D experiments, we observed a remarkable effect on U-118 cells with all nanofibers carrying TMZ at different concentrations, which increased proportionally with the concentration. In particular, treatment with NF-TMZ (carrying TMZ at a concentration of 10 μM) caused a decrease in cell viability at 72 h by more than 40%, whereas a similar decrease (under the same experimental conditions) is reported in the literature with a TMZ concentration of 100 μM.[41] U-87 cells responded less to the treatment, but we still observed a reduction in cell viability of 30%. Indeed, the experiments performed ...
# 3D U-87 [5] = assay: Annexin V-FITC/Propidium Iodide assay, 3D U-87; format: cell-based, human; settings: TMZ 10 μM
# Method: as §2
# [6] = cited from earlier work
# From the text: GBM is the most aggressive type of brain cancer, with a 5-year survival rate of less than 5% and a median survival period of 12–15 months.[9],[10] The standard treatment, consisting of surgery followed by chemotherapy with temozolomide (TMZ) and radiation therapy, marginally improves survival.
# U-118 MG [7] = assay: PrestoBlue cell viability, 2D U-118; format: cell-based, human
# Method: (§5) Glioblastoma/astrocytoma U-87 MG (U-87) and glioma U-118 MG (U-118) cell lines derived from the human brain were plated in 25 cm^2 flasks. They were grown individually in Dulbecco’s modified eagle’s medium high glucose (DMEM), supplemented with fetal bovine serum (FBS, 10%), penicillin/streptomycin (P/S, 100 U/mL), and L-glutamine (L/GLUT, 2 mM, Sigma-Aldrich), in a humidified incubator (37 °C, 5% CO2). At 70% confluence, cells were individually detached with a 0.25% solution of trypsin-EDTA.
# (§6) For 2D experiments, U-118 and U-87 cells were seeded in 48-well plates, at approximately 20,000 cells per well in DMEM culture medium with 10% FBS, under standard cell culture conditions (5% CO2, 37 °C). Once the cells were attached, they were treated for 24, 48, and 72 h with 1) NF-TMZ carrying TMZ at different concentrations: 2.5, 5, 7.5, and 10 μM; 2) NF-t; 3) free TMZ at different concentrations (0, 10, 100, and 250 μM). […] At the end of the incubation time, a cell viability assay was performed using the PrestoBlue assay: the cells were incubated for 1 h according to the manufacturer’s protocol, and then absorbance was measured at 570 nm (with 600 nm as the reference wavelength) using a Bio-Tek Synergy HT Microplate reader.
# 3D U-118 [8] = assay: Annexin V-FITC/Propidium Iodide assay, 3D U-118; format: cell-based, human; settings: 3D U-118, 24 h, TMZ 10 μM
# Method: as §2
# [9] = test system: human brain microvascular endothelial cells (HBMEC); assay: PrestoBlue cell viability, HBMEC; format: cell-based; settings: treated every 24 h for 3 days, TMZ 10 μM
# Method: To verify whether NF-t or NF-TMZ influenced healthy brain endothelial cells constitutively expressing EGFRs, the experiment described above was conducted on human brain microvascular endothelial cells (HBMEC) and brain endothelial cells (bEnd.3) to assess their effects . Cells were seeded in a 96-well plate (15,000 cells per well) in their appropriate culture medium. After 24 h, cells were treated likewise with U-118 and U-87 cells with 10 μM TMZ, both conjugated and unconjugated with NF-t. The control was performed on cells cultured only in the medium. Under the same conditions as for 2D cells, the PrestoBlue assay was performed. […] TMZ release from NF-TMZ was evaluated using matrix metalloproteinase-9 (MMP-9). In particular, NF-TMZ was prepared as reported before and hydrated in the following buffer solution: 50 mM HEPES, 200 mM NaCl, 10 mM CaCl2, and 1 mM ZnCl2, at pH 7. The MMP-9 was preactivated with APMA 100 μM and Tris-HCl 50 mM (pH 7.2) and was left at 37 °C for 3 h.[33],[35] Once activated, MMP-9 was added to NF-TMZ and the culture medium at a final concentration of 40 nM; and cells were incubated for 72 h.
# U-87 MG = assay: PrestoBlue cell viability, 2D U-87; format: cell-based, human
# Method: as §5, §6
# [10] = U118 MG spheroids, 10 spheroids per formulation, Fiji, ***p < 0.001 vs controls
# [11] = U87 MG spheroids, 10 spheroids per formulation, Fiji
compound,measurement,setting,value
"Cn1nnc2c(C(N)=O)ncn2c1=O [TMZ, temozolomide]",lower viability compared with the control,3D U-87 [1],13%
same,decrease in viability compared to the control,3D U-87 [2],55%
same,spheroid surface area compared to control and NF-t,U118 MG spheroids; 3D U-118,significantly lower
same,Circularity,"U118 MG spheroids; U118 MG spheroids, 10 spheroids per formulation, Fiji",0.425
same,Feret’s diameter,U118 MG spheroids; [10],512.096
same,Min Feret,U118 MG spheroids; [10],397.785
same,AR,"U118 MG spheroids; U118 MG spheroids, aspect ratio of fitted ellipse, Fiji",1.298
same,Round,"U118 MG spheroids; U118 MG spheroids, roundness, Fiji",0.802
same,lower viability compared with the control,3D U-118 [3],< 20%
same,spheroid surface area compared to control and NF-t,U87 MG spheroids; 3D U-87,significantly lower
same,Circularity,U87 MG spheroids; [11],0.280
same,Feret’s diameter,U87 MG spheroids; [11],841.910
same,Min Feret,U87 MG spheroids; [11],612.895
same,AR,"U87 MG spheroids; U87 MG spheroids, aspect ratio of fitted ellipse, Fiji",1.404
same,Round,"U87 MG spheroids; U87 MG spheroids, roundness, Fiji",0.732
same,TMZ concentration reported for a similar decrease in cell viability,U-118 MG [4],100 µM
same,apoptotic cells (Annexin V) compared to the control,"3D U-87 [5]; 3D U-87, 24 h",four-time increasing level
same,necrotic cells (PI),"3D U-87 [5]; 3D U-87, 48 h",increase in necrotic cells
same,extravasation from blood to brain,[6],~20%
same,plasma half-life,[6],2 h
same,water solubility,[6],poor water solubility
same,free TMZ concentration giving a similar effect as NF-TMZ (TMZ 10 μM),U-118 MG [7],100 to 250 µM
same,apoptotic cells (Annexin V),3D U-118 [8],initial burst of apoptosis
same,cell viability versus control,[9],no significant difference
same,free TMZ concentration giving a similar effect as NF-TMZ (TMZ 10 μM),U-87 MG; 2D U-87,100 to 250 µM
same,concentrations at which TMZ acted on cell survival,"U-87 MG; 2D U-87, 24- and 48-h treatments",≥ 100 µM

# From publication PMC11979881, “Engineering Multifunctional Peptide-Decorated Nanofibers for Targeted Delivery of Temozolomide across the Blood–Brain Barrier” (Molecular Pharmaceutics, 2025)
